The values below come from patent US20230103330A1, “MECHANISTIC BIOMARKER FOR PREDICTING THE SURVIVAL OF PANCREATIC CANCER PATIENTS” (The Regents of the University of California, priority 2020, published 2023).

The target in test [1] is T1, PKCβII deleted pseudosubstrate (Rattus norvegicus, UniProt P68403, DEL19-36).
T1 construct: expressed in transfected cells; host or cells: COS-7
Put plainly: Immunoblot of PKC priming phosphorylations after phosphatase inhibitor. It is filed as cell-based. Conditions: COS-7 cells, 20 minutes prior to lysis. How it is done:
FIG. 8. PKC APS Phosphorylation Is Not Regulated by a Calyculin-Sensitive Phosphatase. Western blot of lysates from COS-7 cells expressing RFP-tagged PKCβII wild-type (WT) or deleted pseudosubstrate (APS) and treated with DMSO (−) or Calyculin A (Cal, 100pM) and Go6976 (6pM) for 20 minutes prior to lysis. Immunoblots were probed with PKC phospho-specific antibodies against the activation loop (pThr^500), turn motif (pThr” ^1), or hydrophobic motif ([…]), total overexpressed PKC (HA), or phospho-serine substrate (pSer) as a positive control for Calyculin A.
Cells were lysed in PPHB: 50 mM NaPO4 (pH 7.5), 1% Triton X-100, 20 mM NaF, 1 mM Na4P207, 100 mM NaCl, 2 mM EDTA, 2 mM EGTA, 1 mM Na3VO4, 1 mM PMSF, […] leupeptin, 1 mM DTT, and […]. Phlpp1+/+ and Ph/pp1-/−MEFs were lysed in 50 mM Tris (pH 7.4), 1% Triton X-100, 50 mM NaF, 10 mM Na4P207, 100 mM NaCl, 5 mM EDTA, 1 mM Na3VO4, 1 mM PMSF, […] leupeptin, and […]. Triton-soluble fractions were analyzed by SDS-PAGE on 7% big gels to observe phosphorylation shift, transfer to PVDF membrane (Biorad), and western blotting via chemiluminescence SuperSignal West reagent (Thermo Fisher) on a FluorChem Q imaging system (ProteinSimple). In western blots, the asterisk (*) denotes the position of mature, phosphorylated PKC; whereas, the dash (−) indicates the position of unphosphorylated PKC. […]
Background: A western blot detects proteins with antibodies after separation by electrophoresis.

Another test concerns the target T2, PKCβII (Rattus norvegicus, UniProt P68403).
T2 construct: expressed in transfected cells; host or cells: COS7
The test is described as follows: C kinase activity reporter (CKAR) FRET assay of cellular PKC activity. It is filed as cell-based. The conditions noted are these: for activation of WT PKCa and PKCβII (CKAR): COS7 cells, agonist treatment. The method, then:
(§1) For activity experiments COS7 cells were co-transfected with the indicated mCherry-tagged PKC construct and CKAR. For Kinameleon experiments, the indicated Kinameleon construct containing mYFP and mCFP was transfected alone. For translocation experiments, COS7 cells were co-transfected with the indicated mYFPtagged construct and plasma-membrane targeted mCFP at a ratio of 10:1. Baseline images were acquired every 15 s for 2 min prior to ligand addition. F6rster resonance energy transfer (FRET) ratios represent mean±SEM from at least three independent experiments.
(§2) All data were normalized to the baseline FRET ratio of each individual cell unless noted that absolute FRET ratio was plotted or traces were normalized to levels post-inhibitor addition. […] Every experiment contained an mCherry-transfected control to measure endogenous activity, and an mCherry-tagged WT (or deleted pseudosubstrate) PKC. Control traces are depicted as dotted lines: specifically, the endogenous trace in FIG. 1E and the deleted pseudosubstrate trace in FIGS. 2G and 31, were redrawn to serve as a point of reference in those figures (data were acquired and derived in the same experiments which generated all the data in FIGS. 1A-1E and FIGS. 2A-2G, respectively).

The next test deals with WT PKCβII (Rattus norvegicus, UniProt P68403). The conditions noted are these: COS7 cells, PDBu 200 nM. How it is done:
as §1, §2

T2 sequence (P68403 1-673 isoform P68403-2): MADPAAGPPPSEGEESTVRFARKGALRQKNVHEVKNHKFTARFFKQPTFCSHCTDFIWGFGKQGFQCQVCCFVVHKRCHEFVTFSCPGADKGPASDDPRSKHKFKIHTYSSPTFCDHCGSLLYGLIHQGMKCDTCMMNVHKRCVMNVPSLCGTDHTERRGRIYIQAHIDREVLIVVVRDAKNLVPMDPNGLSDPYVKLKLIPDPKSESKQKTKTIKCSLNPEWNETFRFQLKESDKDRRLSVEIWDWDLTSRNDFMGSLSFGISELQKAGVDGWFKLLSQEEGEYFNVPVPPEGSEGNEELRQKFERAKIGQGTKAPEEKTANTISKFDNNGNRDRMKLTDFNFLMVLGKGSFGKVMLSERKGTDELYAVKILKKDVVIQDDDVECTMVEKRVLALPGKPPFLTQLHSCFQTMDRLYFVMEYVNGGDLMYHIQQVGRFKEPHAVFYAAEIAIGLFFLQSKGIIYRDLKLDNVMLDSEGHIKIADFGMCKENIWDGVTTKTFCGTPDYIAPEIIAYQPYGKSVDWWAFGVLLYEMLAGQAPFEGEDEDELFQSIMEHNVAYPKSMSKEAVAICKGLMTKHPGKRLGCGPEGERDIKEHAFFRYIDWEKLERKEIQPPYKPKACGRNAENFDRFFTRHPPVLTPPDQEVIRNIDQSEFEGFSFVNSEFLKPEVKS
Chain of WT PKCβII (P68403 1-673 isoform P68403-2): as above
T1 sequence (P68403 with tags, fused parts or gaps isoform P68403-2 DEL19-36): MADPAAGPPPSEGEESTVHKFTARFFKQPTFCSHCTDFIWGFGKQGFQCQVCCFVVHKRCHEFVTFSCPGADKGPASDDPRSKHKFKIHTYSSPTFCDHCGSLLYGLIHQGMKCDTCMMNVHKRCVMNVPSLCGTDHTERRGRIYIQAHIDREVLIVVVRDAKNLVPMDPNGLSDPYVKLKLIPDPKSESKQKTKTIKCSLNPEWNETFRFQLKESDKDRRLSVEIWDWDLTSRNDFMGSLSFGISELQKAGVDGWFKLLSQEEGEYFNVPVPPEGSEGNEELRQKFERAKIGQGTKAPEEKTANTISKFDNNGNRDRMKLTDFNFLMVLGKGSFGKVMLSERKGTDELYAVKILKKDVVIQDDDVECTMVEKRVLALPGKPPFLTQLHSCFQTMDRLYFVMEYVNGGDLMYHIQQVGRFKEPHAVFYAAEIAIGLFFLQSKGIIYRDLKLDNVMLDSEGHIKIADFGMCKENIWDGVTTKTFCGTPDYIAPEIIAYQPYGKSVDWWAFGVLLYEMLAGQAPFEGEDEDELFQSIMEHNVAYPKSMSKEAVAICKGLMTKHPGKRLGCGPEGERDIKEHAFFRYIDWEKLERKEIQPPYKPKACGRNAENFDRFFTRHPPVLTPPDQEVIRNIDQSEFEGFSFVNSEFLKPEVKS

For the compound `COC[C@@H]([C@H](O)[C@H](O)C(=O)NCC[C@H](C)c1nc(/C=C/C[C@@H]2O[C@]3(C[C@@H](O)[C@@H]2C)O[C@H]([C@H](C[C@H](O)[C@H](C)[C@H](O)[C@H](C)/C=C(C)/C(C)=C/C=C/C(C)=C\C#N)OC)[C@H](OP(=O)(O)O)C3(C)C)co1)N(C)C` [Calyculin A], the “rescue of phosphorylation at the three priming sites of pseudosubstrate-deleted PKC” value in test [1] is given as “could not be rescued”. For `CCCC(=O)O[C@@H]1[C@@H](C)[C@@]2(O)[C@@H](C=C(CO)C[C@]3(O)C(=O)C(C)=C[C@@H]23)[C@@H]2C(C)(C)[C@]12OC(=O)CCC` [PDBu, Phorbol 12,13-dibutyrate], the CKAR phosphorylation entry at PKCβII (COS7 cells expressing WT PKC or turn motif mutant (T641A), PDBu 200 nM) is on record as “robust increase in CKAR phosphorylation”. Besides, the “activation of WT PKCa and PKCβII (CKAR)” value at PKCβII is recorded as “activated”. For the same compound, the “FRET ratio of Kinameleon reporter” value at WT PKCβII was “increase in FRET ratio”. In the case of `O=c1ccn([C@@H]2O[C@H](COP(=O)(O)OP(=O)(O)OP(=O)(O)O)[C@@H](O)[C@H]2O)c(=O)[nH]1` [UTP, uridine triphosphate], the “activation of WT PKCa and PKCβII (CKAR)” value at PKCβII was “activated”.
